# Reference: the NIST ThermoML archive (doi:10.1021/je5010214)
# ± gives the expanded uncertainty stated by the source.
# Settings: Liquid, Vibrating tube method
structure (smiles),measurement,setting,value
CCCCCCC [heptane],mass density,"353.15 K, 65063 kPa",694.154 ± 1.2 kg/m3
same,mass density,"353.16 K, 2113.4 kPa",634.631 ± 0.82 kg/m3
same,mass density,"353.16 K, 33964 kPa",670.126 ± 0.97 kg/m3
same,mass density,"353.16 K, 62042 kPa",692.223 ± 1.1 kg/m3
same,mass density,"353.16 K, 66024 kPa",694.802 ± 1.2 kg/m3
same,mass density,"358.15 K, 100.4 kPa",626.935 ± 0.82 kg/m3
same,mass density,"358.15 K, 264.1 kPa",627.168 ± 0.82 kg/m3
same,mass density,"358.15 K, 508.4 kPa",627.316 ± 0.82 kg/m3
same,mass density,"358.15 K, 926.8 kPa",628.098 ± 0.82 kg/m3
same,mass density,"358.15 K, 1013.9 kPa",628.327 ± 0.82 kg/m3
same,mass density,"358.15 K, 3021.2 kPa",631.365 ± 0.82 kg/m3
same,mass density,"358.15 K, 4930 kPa",634.077 ± 0.83 kg/m3
same,mass density,"358.15 K, 10073 kPa",641.066 ± 0.85 kg/m3
same,mass density,"358.15 K, 12137 kPa",643.735 ± 0.86 kg/m3
same,mass density,"358.15 K, 14905 kPa",646.944 ± 0.87 kg/m3
same,mass density,"358.15 K, 17965 kPa",650.491 ± 0.88 kg/m3
same,mass density,"358.15 K, 22175 kPa",654.965 ± 0.91 kg/m3
same,mass density,"358.15 K, 25059 kPa",657.993 ± 0.92 kg/m3
same,mass density,"358.15 K, 28035 kPa",660.974 ± 0.94 kg/m3
same,mass density,"358.15 K, 30002 kPa",662.532 ± 0.95 kg/m3
same,mass density,"358.15 K, 31978 kPa",664.488 ± 0.96 kg/m3
same,mass density,"358.15 K, 32793 kPa",665.093 ± 0.96 kg/m3
same,mass density,"358.15 K, 33039 kPa",665.404 ± 0.96 kg/m3
same,mass density,"358.15 K, 33850 kPa",666.525 ± 0.97 kg/m3
same,mass density,"358.15 K, 35026 kPa",667.567 ± 0.98 kg/m3
same,mass density,"358.15 K, 37872 kPa",669.996 ± 0.99 kg/m3
same,mass density,"358.15 K, 40037 kPa",671.748 ± 1 kg/m3
same,mass density,"358.15 K, 42100 kPa",673.454 ± 1 kg/m3
same,mass density,"358.15 K, 47958 kPa",678.424 ± 1.1 kg/m3
same,mass density,"358.15 K, 50038 kPa",680.129 ± 1.1 kg/m3
same,mass density,"358.15 K, 52081 kPa",681.85 ± 1.1 kg/m3
same,mass density,"358.15 K, 55073 kPa",684.059 ± 1.1 kg/m3
same,mass density,"358.15 K, 57918 kPa",685.685 ± 1.1 kg/m3
same,mass density,"358.15 K, 60043 kPa",687.68 ± 1.1 kg/m3
same,mass density,"358.15 K, 62066 kPa",689.111 ± 1.1 kg/m3
same,mass density,"358.15 K, 64986 kPa",691.283 ± 1.2 kg/m3
same,mass density,"358.15 K, 66109 kPa",692.023 ± 1.2 kg/m3
same,mass density,"358.16 K, 2083.9 kPa",629.903 ± 0.82 kg/m3
same,mass density,"358.16 K, 6993.5 kPa",637.086 ± 0.84 kg/m3
same,mass density,"358.16 K, 9030.2 kPa",639.755 ± 0.84 kg/m3
same,mass density,"358.16 K, 20162 kPa",652.87 ± 0.89 kg/m3
same,mass density,"358.16 K, 45054 kPa",675.954 ± 1 kg/m3
same,mass density,"363.15 K, 104.1 kPa",622.138 ± 0.82 kg/m3
same,mass density,"363.15 K, 334 kPa",622.474 ± 0.82 kg/m3
same,mass density,"363.15 K, 601.7 kPa",622.649 ± 0.82 kg/m3
same,mass density,"363.15 K, 892.9 kPa",623.267 ± 0.82 kg/m3
same,mass density,"363.15 K, 1034.7 kPa",623.668 ± 0.82 kg/m3
same,mass density,"363.15 K, 1986 kPa",625.081 ± 0.82 kg/m3
same,mass density,"363.15 K, 2940.4 kPa",626.678 ± 0.82 kg/m3
same,mass density,"363.15 K, 4979.2 kPa",629.757 ± 0.83 kg/m3
same,mass density,"363.15 K, 9959.5 kPa",636.563 ± 0.85 kg/m3
same,mass density,"363.15 K, 11971 kPa",639.421 ± 0.86 kg/m3
same,mass density,"363.15 K, 14936 kPa",642.887 ± 0.87 kg/m3
same,mass density,"363.15 K, 17973 kPa",646.544 ± 0.89 kg/m3
same,mass density,"363.15 K, 19940 kPa",648.708 ± 0.9 kg/m3
same,mass density,"363.15 K, 24872 kPa",654.024 ± 0.92 kg/m3
same,mass density,"363.15 K, 27993 kPa",657.078 ± 0.94 kg/m3
same,mass density,"363.15 K, 30062 kPa",659.006 ± 0.95 kg/m3
same,mass density,"363.15 K, 31961 kPa",660.63 ± 0.96 kg/m3
same,mass density,"363.15 K, 33033 kPa",661.606 ± 0.97 kg/m3
same,mass density,"363.15 K, 33053 kPa",661.633 ± 0.97 kg/m3
same,mass density,"363.15 K, 34000 kPa",663.017 ± 0.97 kg/m3
same,mass density,"363.15 K, 35028 kPa",664.03 ± 0.98 kg/m3
same,mass density,"363.15 K, 37919 kPa",666.495 ± 1 kg/m3
same,mass density,"363.15 K, 39916 kPa",668.059 ± 1 kg/m3
same,mass density,"363.15 K, 42016 kPa",669.917 ± 1 kg/m3
same,mass density,"363.15 K, 47947 kPa",675.063 ± 1.1 kg/m3
same,mass density,"363.15 K, 50050 kPa",676.807 ± 1.1 kg/m3
same,mass density,"363.15 K, 52023 kPa",678.457 ± 1.1 kg/m3
same,mass density,"363.15 K, 54940 kPa",680.815 ± 1.1 kg/m3
same,mass density,"363.15 K, 57916 kPa",682.78 ± 1.1 kg/m3
same,mass density,"363.15 K, 59980 kPa",684.625 ± 1.1 kg/m3
same,mass density,"363.15 K, 62043 kPa",686.168 ± 1.2 kg/m3
same,mass density,"363.15 K, 64924 kPa",688.267 ± 1.2 kg/m3
same,mass density,"363.15 K, 66088 kPa",689.169 ± 1.2 kg/m3
same,mass density,"363.16 K, 6920.2 kPa",632.642 ± 0.84 kg/m3
same,mass density,"363.16 K, 8964.8 kPa",635.395 ± 0.85 kg/m3
same,mass density,"363.16 K, 21933 kPa",650.806 ± 0.91 kg/m3
same,mass density,"363.16 K, 44987 kPa",672.551 ± 1 kg/m3
